What was measured:
DLD-1 BRCA2(−/−) = assay: Cell growth inhibition assay (CellTiter-Glo cell viability, 7 days); format: cell-based; details: Homo sapiens, 168 h, DLD-1 BRCA2(-/-) cells
[1] = tested on: MDA-MB-436 (mutated BRCA1) cell lines; assay: as above; format: cell-based; details: Homo sapiens, 168 h, MDA-MB-436 cells

SMILES	EC50 (DLD-1 BRCA2(−/−))	EC50 [1]
CNC(=O)c1ccc(N2CCN(Cc3cnc4cc(C)c(=O)[nH]c4c3)CC2)c(C#N)c1 [Example 38]	7.6 nM	5.3 nM
CCc1cc2ncc(CN3CCN(c4ccc(C(=O)NC[C@@H]5CCOC5)nc4)CC3)cc2[nH]c1=O [Example 40]	6.7 nM	4.4 nM
CCc1cc2ncc(CN3CCN(c4ccc(C(=O)NC5CCOCC5)nc4)CC3)cc2[nH]c1=O [Example 44]	7.4 nM	5.3 nM
CCc1cc2ncc(CN3CCN(c4ccc(C(=O)N[C@H]5C[C@@](C)(O)C5)nc4)CC3)cc2[nH]c1=O [Example 45]	16 nM	4.3 nM
CCc1cc2ncc(CN3CCN(c4ccc(C(=O)N[C@H]5CCOC5)nc4)CC3)cc2[nH]c1=O [Example 47]	7.7 nM	3.3 nM
CCc1cc2ncc(CN3CCN(c4cc(F)c(C(=O)NC)cn4)CC3)cc2[nH]c1=O [Example 51]	17 nM	6.4 nM
CCc1cc2ncc(CN3CCN(c4ccc(C(=O)NCC(C)(C)O)nc4)CC3)cc2[nH]c1=O [Example 52]	12 nM	4 nM
CCc1cc2ncc(CN3CCN(c4ccc(C(=O)N[C@H]5C[C@](C)(O)C5)nc4)CC3)cc2[nH]c1=O [Example 55]	11 nM	1.4 nM
CCc1cc2ncc(CN3CCN(c4ccc(C(=O)NC[C@@H](C)O)nc4)CC3)cc2[nH]c1=O [Example 57]	11 nM	3.6 nM
CCc1cc2ncc(CN3CCN(c4ccc(C(=O)N[C@H](C)CO)nc4)CC3)cc2[nH]c1=O [Example 59]	16 nM	7.8 nM
CCc1cc2ncc(CN3CCN(c4ccc(C(=O)NC[C@@H](C)OC)nc4)CC3)cc2[nH]c1=O [Example 60]	14 nM	5 nM
CCc1cc2ncc(CN3CCN(c4ccc(C(=O)NC)nn4)CC3)cc2[nH]c1=O [Example 61]	6.3 nM	4.8 nM
Cc1cc2ncc(CN3CCN(c4ccc(C(=O)NC5CC5)nc4)CC3)cc2[nH]c1=O [Example 63]	9.3 nM	3.2 nM
CNC(=O)c1ccc(C2=CCN(Cc3cnc4cc(C5CC5)c(=O)[nH]c4c3)CC2)cn1 [Example 64]	0.92 nM	0.64 nM
CCc1cc2ncc(CN3CCN(c4ccc(C(=O)NC)c(=O)n4C)CC3)cc2[nH]c1=O [Example 65]	13 nM	3.1 nM
CNC(=O)c1ncc(N2CCN(Cc3ccc4c5c(c(=O)[nH]c4c3)CCO5)CC2)cc1F [Example 71]	13 nM	5.9 nM
CNC(=O)c1ccc(N2CCN(Cc3cnc4cc(C5CC5)c(=O)[nH]c4c3)C[C@H]2C)cn1 [Example 74]	7.8 nM	3.9 nM
CNC(=O)c1ccc2c(n1)OC[C@@H]1CN(Cc3cnc4cc(C)c(=O)[nH]c4c3)CCN21 [Example 77]	8.5 nM	5.8 nM
CCc1cc2ncc(CN3CCN(c4ccc(C(=O)NC5COC5)nc4)[C@H](C)C3)cc2[nH]c1=O [Example 79]	9.6 nM	3.7 nM
Cc1cc2ncc(CN3CCN(c4ccc(C(=O)NC5COC5)c(F)c4)CC3)cc2[nH]c1=O [Example 80]	37 nM	9.8 nM
CCc1cc2ncc(CN3CCN(c4ccccn4)CC3)cc2[nH]c1=O [Example 82, 3-ethyl-7-{[4-(pyridin-2-yl)piperazin-1-yl]methyl}-1H-1,5-naphthyridin-2-one]	10 nM	7.8 nM
CCc1nc2cnc(CN3CCN(c4ccc(C(=O)NC)nc4)CC3)cc2[nH]c1=O [Example 87]	6.5 nM	5.3 nM
CCc1nc2ncc(CN3CCN(c4ccc(C(=O)NC)nc4)CC3)cc2[nH]c1=O [Example 91]	13 nM	13 nM
CCc1cc2ncc(CN3CCN(c4ccc(-n5cccn5)nc4)CC3)cc2[nH]c1=O [Example 92]	11 nM	10 nM
CNC(=O)c1ccc2c(c1F)OC[C@@H]1CN(Cc3cnc4cc(C)c(=O)[nH]c4c3)CCN21 [Example 94]	39 nM	41 nM
CCc1cc2ncc(CN3CCN(c4ccc(NC(=O)N5CCOCC5)nc4)CC3)cc2[nH]c1=O [Example 101]	17 nM	9.8 nM
CCc1cc2ncc(CN3CCN(c4ccc(NC(=O)OC5COC5)nc4)CC3)cc2[nH]c1=O [Example 102]	13 nM	18 nM
Cc1cc2ncc(CN3CCN(c4cnc(C(=O)NC5CC5)c(F)c4)CC3)cc2[nH]c1=O [Example 108]	31 nM	14 nM
[2H]C([2H])([2H])C([2H])([2H])NC(=O)c1ccc(N2CCN(Cc3cnc4cc(C5CC5)c(=O)[nH]c4c3)CC2)n(C)c1=O [Example 123]	15 nM	5.6 nM

Other lines, results leading:

EC50 (DLD-1 BRCA2(−/−))	EC50 [1]	SMILES
3.3 nM	2.7 nM	CCc1cc2ncc(CN3CCN(c4cnc(C(=O)NC)c(F)c4)[C@H](C)C3)cc2[nH]c1=O [Example 39]
2.4 nM	1.9 nM	CCc1cc2ncc(CN3CCN(c4ccc(C(=O)NC[C@H]5CCOC5)nc4)CC3)cc2[nH]c1=O [Example 41]
3.3 nM	4.1 nM	CCc1cc2ncc(CN3CCN(c4ccc(C(=O)NCCOC)nc4)CC3)cc2[nH]c1=O [Example 42]
2.4 nM	3.2 nM	CCc1cc2ncc(CN3CCN(c4ccc(C(=O)NC(C)C)nc4)CC3)cc2[nH]c1=O [Example 43]
3.7 nM	1.2 nM	CCc1cc2ncc(CN3CCN(c4ccc(C(=O)NC5COC5)nc4)CC3)cc2[nH]c1=O [Example 46]
2.7 nM	1.7 nM	CCc1cc2ncc(CN3CCN(c4ccc(C(=O)N[C@@H]5CCOC5)nc4)CC3)cc2[nH]c1=O [Example 48]
5.5 nM	2.4 nM	CCc1cc2ncc(CN3CCN(c4ccc(C(=O)N[C@H]5CCC[C@@H]5O)nc4)CC3)cc2[nH]c1=O [Example 49]
4.5 nM	2.1 nM	CCc1cc2ncc(CN3CCN(c4ccc(C(=O)NCCC#N)nc4)CC3)cc2[nH]c1=O [Example 50]
3.5 nM	0.9 nM	CCc1cc2ncc(CN3CCN(c4ccc(C(=O)N[C@H]5C[C@@H](C#N)C5)nc4)CC3)cc2[nH]c1=O [Example 58]
4.1 nM	1.7 nM	CNC(=O)c1ccc(N2CCN(Cc3cnc4cc(C)c(=O)[nH]c4c3)C[C@H]2C)c(C#N)n1 [Example 66]
1.8 nM	1.1 nM	[2H]C([2H])([2H])NC(=O)c1ccc(N2CCN(Cc3cnc4cc(C5CC5)c(=O)[nH]c4c3)CC2)cn1 [Example 67]
5.5 nM	2.6 nM	CCc1cc2ncc(CN3CCN(c4ccc(-c5cnc[nH]5)c(F)c4)CC3)cc2[nH]c1=O [Example 70]
4.2 nM	2.2 nM	[2H]C([2H])([2H])NC(=O)c1ccc(N2CCN(Cc3ccc4c5c(c(=O)[nH]c4c3)CCO5)CC2)cn1 [Example 73]
2.6 nM	1.5 nM	CCc1cc2ncc(CN3CCN(c4ccc(NC(=O)C5CC5)nc4)CC3)cc2[nH]c1=O [Example 75]
2.8 nM	1.8 nM	CNC(=O)c1ccc2c(n1)OC[C@@H]1CN(Cc3cnc4cc(C5CC5)c(=O)[nH]c4c3)CCN21 [Example 78]
5.9 nM	4.5 nM	O=C(NC1COC1)c1ccc(N2CCN(Cc3cnc4cc(C5CC5)c(=O)[nH]c4c3)CC2)cn1 [Example 81]
1.5 nM	1.4 nM	C#Cc1ccc(N2CCN(Cc3cnc4cc(CC)c(=O)[nH]c4c3)CC2)nc1 [Example 83]

EC50 (DLD-1 BRCA2(−/−))	EC50 [1]	SMILES
2.2 nM	2 nM	CNC(=O)c1ccc(N2CCN(Cc3cnc4c5c(c(=O)[nH]c4c3)CCC5)CC2)cn1 [Example 84]
6 nM	6.1 nM	CCc1cc2nnc(CN3CCN(c4ccc(C(=O)NC)nc4)CC3)cc2[nH]c1=O [Example 86]
3.5 nM	2.5 nM	CCc1cc2ccc(CN3CCN(c4ccc(C(=O)NC)c(=O)n4C)CC3)cc2[nH]c1=O [Example 89]
1.7 nM	0.84 nM	[2H]C([2H])([2H])NC(=O)c1ccc(N2CCN(Cc3cnc4cc(CC)c(=O)[nH]c4c3)C[C@H]2C)c(C#N)n1 [Example 93]
3.9 nM	2.9 nM	CNC(=O)c1ccc(N2CCN(Cc3cnc4c(C)c(C)c(=O)[nH]c4c3)CC2)cn1 [Example 95]
1.5 nM	0.71 nM	CNC(=O)c1ccc(N2CCN(Cc3cnc4cc(C5CC5)c(=O)[nH]c4c3)CC2)c(C#N)n1 [Example 97]
3.9 nM	2.6 nM	CNC(=O)c1ncc(N2CCN(Cc3cnc4cc(C5CC5)c(=O)[nH]c4c3)CC2)cc1F [Example 100]
1.4 nM	1.4 nM	CNC(=O)c1ccc(N2CCN(Cc3cnc4cc(C5CCC5)c(=O)[nH]c4c3)CC2)cn1 [Example 104]
3.2 nM	1.8 nM	CCc1cc2ncc(CN3CCN(c4cnc(C(=O)NC5CC5)c(F)c4)CC3)cc2[nH]c1=O [Example 105]
5.7 nM	6.6 nM	CCc1cc2ncc(CN3CCN(c4ccncn4)CC3)cc2[nH]c1=O [Example 106]
1.9 nM	1.3 nM	[2H]C([2H])(c1cnc2cc(C3CC3)c(=O)[nH]c2c1)N1CCN(c2ccc(C(=O)NC)nc2)CC1 [Example 115]
2 nM	1.2 nM	[2H]C([2H])([2H])NC(=O)c1ccc(N2CCN(C([2H])([2H])c3cnc4cc(C5CC5)c(=O)[nH]c4c3)CC2)cn1 [Example 116]
2.1 nM	1.2 nM	[2H]C([2H])(c1cnc2cc(C3CC3)c(=O)[nH]c2c1)N1CCN(c2ccc(C(=O)NC3CC3)nc2)CC1 [Example 117]
1.3 nM	0.74 nM	CCc1cc2ncc(CN3CCN(c4ccncc4C#N)CC3)cc2[nH]c1=O [Example 118]
1.8 nM	0.99 nM	[2H]C([2H])([2H])C([2H])([2H])NC(=O)c1ccc(N2CCN(Cc3cnc4cc(C5CC5)c(=O)[nH]c4c3)CC2)cn1 [Example 119]
2.7 nM	1.7 nM	CCc1cc2ncc(CN3CCN(c4ccnnc4C#N)CC3)cc2[nH]c1=O [Example 120]
